Laboratory results from PubChem BioAssay AID248 (DTP/NCI, 2004).
Values joined by “and” are separate entries in the source; they are usually repeats but may differ in a detail not shown here. Identical values can stand only once. Toxic doses and inconclusive results are not listed. Cut-off read from the data, not from the text of the source: active = T/C of 150% or more; inactive = T/C below 125%. Square brackets hold non-standard residues; d marks the D form. Peptide text beside a SMILES is read from it. * marks the point of attachment. ξ: configuration not given here. Boc = CC(C)(C)OC(=O)*; ξP = O=C(O)C1CCCN1

Tested on: L1210 leukemia ip in BDF1 mice, survival T/C
Test: NCI In Vivo Anticancer Drug Screen. Data for tumor model L1210 Leukemia (intraperitoneal) in B6D2F1 (BDF1) mice
Settings: endpoint: mean survival time, higher = longer survival
How it was run: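 Ratio derived from survival: compound-dosed mice over vehicle-dosed mice, all bearing a transplantable tumor.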

[1] = dose: 50.0 mg/kg/injection, schedule: Q04DX003 (ip), vehicle: saline
[2] = dose: 100.0 mg/kg/injection, schedule: Q01DX001 (ip), vehicle: saline
[3] = dose: 200.0 mg/kg/injection, schedule: Q01DX001 (ip), vehicle: saline
[4] = dose: 400.0 mg/kg/injection, schedule: Q01DX001 (ip), vehicle: saline
[5] = dose: 100.0 mg/kg/injection, schedule: Q04DX003 (ip), vehicle: Klucel (hydroxypropylcellulose) (HPC)
[6] = dose: 200.0 mg/kg/injection, schedule: Q04DX003 (ip), vehicle: Klucel (hydroxypropylcellulose) (HPC)
[7] = dose: 400.0 mg/kg/injection, schedule: Q04DX003 (ip), vehicle: Klucel (hydroxypropylcellulose) (HPC)
[8] = dose: 100.0 mg/kg/injection, schedule: Q01DX009 (ip), vehicle: Klucel (hydroxypropylcellulose) (HPC)
[9] = dose: 200.0 mg/kg/injection, schedule: Q01DX009 (ip), vehicle: Klucel (hydroxypropylcellulose) (HPC)
[10] = dose: 400.0 mg/kg/injection, schedule: Q01DX009 (ip), vehicle: Klucel (hydroxypropylcellulose) (HPC)
[11] = dose: 100.0 mg/kg/injection, schedule: Q04DX002 (ip), vehicle: Klucel (hydroxypropylcellulose) (HPC)
[12] = dose: 100.0 mg/kg/injection, schedule: Q01DX009 (ip), vehicle: saline with Tween-80
[13] = dose: 200.0 mg/kg/injection, schedule: Q01DX009 (ip), vehicle: saline with Tween-80
[14] = dose: 400.0 mg/kg/injection, schedule: Q01DX009 (ip), vehicle: saline with Tween-80
[15] = dose: 100.0 mg/kg/injection, schedule: Q04DX003 (ip), vehicle: saline with Tween-80
[16] = dose: 200.0 mg/kg/injection, schedule: Q04DX003 (ip), vehicle: saline with Tween-80
[17] = dose: 400.0 mg/kg/injection, schedule: Q04DX003 (ip), vehicle: saline with Tween-80
[18] = dose: 100.0 mg/kg/injection, schedule: Q01DX001 (ip), vehicle: Klucel (hydroxypropylcellulose) (HPC)
[19] = dose: 200.0 mg/kg/injection, schedule: Q01DX001 (ip), vehicle: Klucel (hydroxypropylcellulose) (HPC)
[20] = dose: 400.0 mg/kg/injection, schedule: Q01DX001 (ip), vehicle: Klucel (hydroxypropylcellulose) (HPC)
[21] = dose: 50.0 mg/kg/injection, schedule: Q01DX009 (ip), vehicle: Klucel (hydroxypropylcellulose) (HPC)
[22] = dose: 100.0 mg/kg/injection, schedule: Q04DX003 (ip), vehicle: saline
[23] = dose: 200.0 mg/kg/injection, schedule: Q04DX003 (ip), vehicle: saline
[24] = dose: 400.0 mg/kg/injection, schedule: Q04DX003 (ip), vehicle: saline

Measured: T/C

CCCC[CH2][Sn](=[O])[CH2]CCCC
inactive: dose: 12.5 mg/kg/injection, schedule: Q04DX003 (ip), vehicle: saline 101 % of control | dose: 25.0 mg/kg/injection, schedule: Q04DX003 (ip), vehicle: saline 101 % of control | [1] 108 % of control | [2] 109 % of control | [3] 104 % of control | [4] 98 % of control

Cc1ccc(N2SC(Cl)(Cl)N(c3ccc(C)cc3)SC2(Cl)Cl)cc1
inactive: [5] 94 % of control | [6] 90 % of control | [7] 100 % of control

CCOc1ccc(/C=N/NC(=O)CCCCCCCCC(=O)N/N=C/c2ccc(OCC)c(OC)c2)cc1OC
inactive: [8] 95 % of control | [9] 88 % of control | [10] 97 % of control

COc1ccc(C=Nc2ccc(C(=O)O)cc2)cc1
inactive: dose: 100.0 mg/kg/injection, schedule: Q04DX002 (ip), vehicle: saline with Tween-80 100 % of control | dose: 200.0 mg/kg/injection, schedule: Q04DX002 (ip), vehicle: saline with Tween-80 110 % of control | dose: 400.0 mg/kg/injection, schedule: Q04DX002 (ip), vehicle: saline with Tween-80 89 % of control

CC1CCC2C(C)C3C(CC4C5CC=C6CC(OC7OC(COC8OC(CO)C(OC9OC(C)C(O)C(O)C9O)C(O)C8O)C(O)C(O)C7O)CCC6(C)C5CCC43C)N2C1 (centres undefined)
inactive: dose: 50.0 mg/kg/injection, schedule: Q04DX002 (ip), vehicle: Klucel (hydroxypropylcellulose) (HPC) 105 % of control | [11] 102 % of control

CCC(=O)c1cc([N+](=O)[O-])ccc1NC(C)=O
inactive: [12] 97 % of control | [13] 94 % of control | [14] 94 % of control

CC(=O)Oc1cc(OC(C)=O)c2ccccc2c1OC(C)=O
inactive: dose: 1.56 mg/kg/injection, schedule: Q04DX003 (ip), vehicle: saline 102 % of control | dose: 3.12 mg/kg/injection, schedule: Q04DX003 (ip), vehicle: saline 106 % of control | dose: 6.25 mg/kg/injection, schedule: Q04DX003 (ip), vehicle: saline 102 % of control | dose: 12.5 mg/kg/injection, schedule: Q01DX001 (ip), vehicle: saline 103 % of control | dose: 25.0 mg/kg/injection, schedule: Q01DX001 (ip), vehicle: saline 97 % of control | dose: 50.0 mg/kg/injection, schedule: Q01DX001 (ip), vehicle: saline 100 % of control

CC(NC(=O)Oc1cccc(NC(=O)N(C)C)c1)C(C)(C)C (centres undefined)
inactive: [12] 109 % of control | [13] 96 % of control | [14] 98 % of control

O=C(c1ccccc1)C1CSC1Br (centres undefined)
inactive: [15] 102 % of control | [16] 98 % of control | [17] 100 % of control

ClC(Cl)(Cl)C1OCOC(C(Cl)(Cl)Cl)OCO1 (centres undefined)
inactive: [8] 94 % of control | [5] 98 % of control | [9] 93 % of control | [6] 98 % of control | [10] 94 % of control | [7] 102 % of control

Cc1cc(C)c(NS(=O)(=O)c2ccccc2)c(C)n1
inactive: [12] 98 % of control and 100 % of control | [15] 96 % of control | [13] 91 % of control and 92 % of control | [16] 100 % of control | [14] 96 % of control and 97 % of control | [17] 96 % of control

CC1(C)C2=CCCCC2CC/C1=N\O (centres undefined)
inactive: [18] 105 % of control | [19] 105 % of control | [20] 100 % of control

O=C1OCc2c1cc1n(c2=O)Cc2cc3ccccc3nc2-1
inactive: [18] 89 % of control | [19] 89 % of control | [20] 103 % of control

FC(F)(F)COC(Br)CBr (centres undefined)
inactive: dose: 15.0 mg/kg/injection, schedule: Q01DX001 (ip), vehicle: carboxymethylcellulose (CMC) 101 % of control | dose: 30.0 mg/kg/injection, schedule: Q01DX001 (ip), vehicle: carboxymethylcellulose (CMC) 93 % of control | dose: 60.0 mg/kg/injection, schedule: Q01DX001 (ip), vehicle: carboxymethylcellulose (CMC) 95 % of control

COC(=O)CNC(=O)C1CCCN1C(=O)OC(C)(C)C (centres undefined) (Boc-[ξP]-Gly-OMe)
inactive: [12] 100 % of control | [13] 100 % of control | [14] 90 % of control

Nc1nc2nc(N=Nc3ccc(S(=O)(=O)N(CCCl)CCCl)cc3)[nH]c2c(=O)[nH]1
inactive: [5] 93 % of control | [6] 87 % of control | [7] 96 % of control

O=C(CCl)Nc1ccccc1
inactive: [11] 89 % of control | dose: 200.0 mg/kg/injection, schedule: Q04DX002 (ip), vehicle: Klucel (hydroxypropylcellulose) (HPC) 92 % of control

Cc1ccc(S(=O)(=O)NC(=O)N(Cc2ccccc2)C(C)(C)C)cc1
inactive: dose: 25.0 mg/kg/injection, schedule: Q01DX009 (ip), vehicle: Klucel (hydroxypropylcellulose) (HPC) 107 % of control | [21] 100 % of control

O=c1cc(CSCC(O)CO)[nH]c(=O)[nH]1 (centres undefined)
inactive: [22] 98 % of control | [23] 98 % of control | [24] 96 % of control

CC(C)C1C(=O)N2CCCC2C2(O)OC(NC(=O)C3C=C4c5cccc6[nH]cc(c56)CC4N(C)C3)(C(C)C)C(=O)N12 (centres undefined)
inactive: dose: 25.0 mg/kg/injection, schedule: Q01DX009 (ip), vehicle: saline 94 % of control | dose: 50.0 mg/kg/injection, schedule: Q01DX009 (ip), vehicle: saline 91 % of control | [1] 106 % of control | dose: 100.0 mg/kg/injection, schedule: Q01DX009 (ip), vehicle: saline 94 % of control | [22] 101 % of control | [23] 108 % of control | [24] 95 % of control

O=c1ccc(=O)c2c(=O)c3ccccc3c(=O)c1=2
inactive: [21] 97 % of control | [8] 95 % of control | [5] 101 % of control | [6] 103 % of control

COc1ccc(NC(=O)Nc2cccc(O)c2)c(OC)c1
inactive: [8] 100 % of control | [9] 96 % of control | [10] 100 % of control

CC[n+]1c(C)sc2cc3c(cc21)OCO3
inactive: dose: 25.0 mg/kg/injection, schedule: Q04DX003 (ip), vehicle: Klucel (hydroxypropylcellulose) (HPC) 102 % of control | [21] 103 % of control | dose: 50.0 mg/kg/injection, schedule: Q04DX003 (ip), vehicle: Klucel (hydroxypropylcellulose) (HPC) 107 % of control | [8] 96 % of control | [5] 105 % of control and 109 % of control

O=C(O)CCSc1ccc2c(c1)CCCC2
inactive: dose: 100.0 mg/kg/injection, schedule: Q04DX003 (ip), vehicle: acetone 99 % of control | dose: 200.0 mg/kg/injection, schedule: Q04DX003 (ip), vehicle: acetone 100 % of control | dose: 400.0 mg/kg/injection, schedule: Q04DX003 (ip), vehicle: acetone 96 % of control

C/C(CC(O)(C(F)(F)F)C(F)(F)F)=N\Nc1ccccc1
inactive: dose: 100.0 mg/kg/injection, schedule: Q04DX003 (ip), vehicle: other 102 % of control | dose: 200.0 mg/kg/injection, schedule: Q04DX003 (ip), vehicle: other 97 % of control | dose: 400.0 mg/kg/injection, schedule: Q04DX003 (ip), vehicle: other 106 % of control

O=C(OCC(OC(=O)c1ccccc1)C(OC(=O)c1ccccc1)C(OC(=O)c1ccccc1)C(SCc1ccccc1)SCc1ccccc1)c1ccccc1 (centres undefined)
inactive: dose: 100.0 mg/kg/injection, schedule: Q01DX001 (ip), vehicle: carboxymethylcellulose (CMC) 101 % of control | dose: 200.0 mg/kg/injection, schedule: Q01DX001 (ip), vehicle: carboxymethylcellulose (CMC) 97 % of control | dose: 400.0 mg/kg/injection, schedule: Q01DX001 (ip), vehicle: carboxymethylcellulose (CMC) 95 % of control

CSc1cc(=O)n(C2OC(CO)C(O)C2O)c(=O)[nH]1 (centres undefined)
inactive: [2] 101 % of control | dose: 100.0 mg/kg/injection, schedule: Q01DX005 (ip), vehicle: saline 101 % of control | [3] 118 % of control | dose: 200.0 mg/kg/injection, schedule: Q01DX005 (ip), vehicle: saline 97 % of control | [4] 104 % of control
